# According to ChEMBL document CHEMBL3853292, “Aspewentins D-H, 20-Nor-isopimarane Derivatives from the Deep Sea Sediment-Derived Fungus Aspergillus wentii SD-310” (J Nat Prod, 2016):
# Tests used:
# Edwardsiella tarda = assay: Antimicrobial activity against Edwardsiella tarda QDIO-2 measured after 24 hrs by XTT assay; format: functional; details: QDIO-2, 24 h
# Micrococcus luteus = assay: Antimicrobial activity against Micrococcus luteus QDIO-3 measured after 24 hrs by XTT assay; format: functional; details: QDIO-3, 24 h
# Escherichia coli = assay: Antimicrobial activity against Escherichia coli EMBLC-1 measured after 24 hrs by XTT assay; format: functional; details: EMBLC-1, 24 h
# Staphylococcus aureus = assay: Antimicrobial activity against Staphylococcus aureus EMBLC-2 measured after 24 hrs by XTT assay; format: functional; details: EMBLC-2, 24 h
# Aeromonas hydrophila = assay: Antimicrobial activity against Aeromonas hydrophila QDIO-1 measured after 24 hrs by XTT assay; format: functional; details: QDIO-1, 24 h
# Pseudomonas aeruginosa = assay: Antimicrobial activity against Pseudomonas aeruginosa QDIO-4 measured after 24 hrs by XTT assay; format: functional; details: QDIO-4, 24 h
# Vibrio anguillarum = assay: Antimicrobial activity against Vibrio anguillarum QDIO-6 measured after 24 hrs by XTT assay; format: functional; details: QDIO-6, 24 h
# Vibrio harveyi = assay: Antimicrobial activity against Vibrio harveyi QDIO-7 measured after 24 hrs by XTT assay; format: functional; details: QDIO-7, 24 h
# Vibrio parahaemolyticus = assay: Antimicrobial activity against Vibrio parahaemolyticus QDIO-8 measured after 24 hrs by XTT assay; format: functional; details: QDIO-8, 24 h
# Alternaria brassicae = assay: Antimicrobial activity against Alternaria brassicae QDAU-1 measured after 24 hrs by XTT assay; format: functional; details: QDAU-1, 24 h
# [1] = test system: Colletotrichum gloeosporioides; assay: Antimicrobial activity against Colletotrichum gloeosporioides QDAU-2 by XTT assay; format: functional
# Fusarium graminearum = assay: Antimicrobial activity against Fusarium graminearum QDAU-4 measured after 24 hrs by XTT assay; format: functional; details: QDAU-4, 24 h
# Gaeumannomyces graminis = assay: Antimicrobial activity against Gaeumannomyces graminis QDAU-3 measured after 24 hrs; format: functional; details: QDAU-3, 24 h
# [2] = Toxicity in brine shrimp larvae assessed as lethality measured after 24 hrs by macroscopic analysis; details: artemia salina; read-out: LD50
Structure (SMILES),MIC (Edwardsiella tarda),MIC (Micrococcus luteus),MIC (Escherichia coli),MIC (Staphylococcus aureus),MIC (Aeromonas hydrophila),MIC (Pseudomonas aeruginosa),MIC (Vibrio anguillarum),MIC (Vibrio harveyi),MIC (Vibrio parahaemolyticus),MIC (Alternaria brassicae),MIC [1],MIC (Fusarium graminearum),MIC (Gaeumannomyces graminis),LC50 at 24 h [2]
C=C[C@@]1(C)CCc2c3c(cc(O)c2[C@@H]1O)C(C)(C)[C@H](O)CC3,> 32 µg/mL,16 µg/mL,32 µg/mL,> 32 µg/mL,> 32 µg/mL,4 µg/mL,32 µg/mL,> 32 µg/mL,32 µg/mL,32 µg/mL,32 µg/mL,4 µg/mL,32 µg/mL,> 10 µg/mL
C=C[C@]1(C)C=C2C(=O)C=C3C(C)(C)CC[C@@H](O)[C@]3(O)[C@H]2CC1,> 32 µg/mL,16 µg/mL,> 32 µg/mL,> 32 µg/mL,> 32 µg/mL,> 32 µg/mL,> 32 µg/mL,> 32 µg/mL,32 µg/mL,32 µg/mL,> 32 µg/mL,> 32 µg/mL,> 32 µg/mL,> 10 µg/mL
C=C[C@@]1(C)CCc2c(c(O)cc3c2CCCC3(C)C)C1,16 µg/mL,> 32 µg/mL,> 32 µg/mL,8 µg/mL,> 32 µg/mL,> 32 µg/mL,> 32 µg/mL,> 32 µg/mL,4 µg/mL,> 32 µg/mL,> 32 µg/mL,> 32 µg/mL,8 µg/mL,> 10 µg/mL
C=C[C@]1(C)C=C2C(=O)C=C3C(C)(C)CCC[C@]3(O)[C@@]2(O)CC1,> 32 µg/mL,4 µg/mL,32 µg/mL,> 32 µg/mL,> 32 µg/mL,32 µg/mL,> 32 µg/mL,> 32 µg/mL,> 32 µg/mL,8 µg/mL,> 32 µg/mL,2 µg/mL,32 µg/mL,> 10 µg/mL
C=C[C@]1(C)C=C2C(=O)C=C3C(C)(C)[C@H](O)CC[C@]3(O)[C@H]2CC1,4 µg/mL,> 32 µg/mL,> 32 µg/mL,32 µg/mL,16 µg/mL,> 32 µg/mL,32 µg/mL,8 µg/mL,32 µg/mL,> 32 µg/mL,> 32 µg/mL,> 32 µg/mL,> 32 µg/mL,> 10 µg/mL
C=C[C@@]1(C)CCc2c3c(cc(O)c2[C@H]1O)C(C)(C)[C@H](O)CC3,> 32 µg/mL,> 32 µg/mL,16 µg/mL,32 µg/mL,> 32 µg/mL,> 32 µg/mL,> 32 µg/mL,4 µg/mL,> 32 µg/mL,> 32 µg/mL,32 µg/mL,> 32 µg/mL,32 µg/mL,> 10 µg/mL
C[C@@H]1[C@H](O)[C@@H](C)/C=C/C=C/C=C/C=C/C=C/C=C/C=C/[C@H](O[C@@H]2O[C@H](C)[C@@H](O)[C@H](N)[C@@H]2O)C[C@@H]2O[C@](O)(C[C@@H](O)C[C@@H](O)[C@H](O)CC[C@@H](O)C[C@@H](O)CC(=O)O[C@H]1C)C[C@H](O)[C@H]2C(=O)O [AMPHOTERICIN B],,,,,,,,,,32 µg/mL,32 µg/mL,8 µg/mL,64 µg/mL,
O=C(N[C@H](CO)[C@H](O)c1ccc([N+](=O)[O-])cc1)C(Cl)Cl [CHLORAMPHENICOL],8 µg/mL,8 µg/mL,4 µg/mL,0.5 µg/mL,4 µg/mL,4 µg/mL,0.5 µg/mL,4 µg/mL,1 µg/mL,,,,,
